Where two headings read alike, the source gives them in different places.
Key:
[1] = system: female Lewis rats; experiment: In situ isometric hindlimb force in anaesthetised rats under partial neuromuscular block by Cisatracurium; type: in vivo; details: Rattus norvegicus, iv, read-out: increase in tetanic force
Protocol: Isometric hindlimb force was measured in 12-week old female Lewis rats in the presence and absence of compound.
Rats were placed under anesthesia with isoflurane (2-4%), intubated and subsequently connected to a micro ventilator (Microvent 1, Hallowell EMC, US). Two stimulation electrodes were inserted through the skin to stimulate the sciatic nerve. A small incision was made proximal to the ankle, to expose the Achilles tendon, which was tied by cotton string, and connected to a force transducer (Fort250, World Precision Instruments) with adjustable position (Vernier control). The Achilles tendon was then cut distal to the attached cotton string. The rat was placed on a heated pad, and to prevent movement artefacts from contraction of the ankle dorsiflexors, the foot was fixated by tape on a footplate.
Muscle contractile properties were assessed by applying an electrical current (under supramaximal voltage conditions) to the nerve and recording the force generated by the muscle. The muscle was stretched until maximal force was obtained, when assessed by 2 Hz stimulation. Isometric force was measured every 30 seconds at 12 Hz (Twitch), 10 pulses, and at every 5 minutes at 80 Hz (Tetanic) for 1 second (80 pulses). This stimulation pattern was employed throughout the experiment, expect in few cases where 80 Hz stimulation was replaced by 12 Hz (10 pulses). […] When the level of neuromuscular inhibition was stable, the test article was injected i.v. at the chosen concentration. The effect of test article was assessed on its ability to increase force generated from the stimulation pattern applied. The effect was assessed in the ability to increase force per se (tetanic, 80 Hz, stimulation), and the ratio between individual twitch peaks (12 Hz stimulation). The effect was monitored for at least 1 hour after injection of test article. In addition, the time from injection of test article to maximal effect on force (both twitch and tetanic) was noted and the time for the effect to disappear (return to baseline), if possible. When appropriate the infusion of neuromuscular blocking agent was ceased, with the stimulation pattern continued, and the return of force to control levels was monitored. Animals were sacrificed by cervical dislocation while still fully sedated.

[2] = system: isolated rat soleus muscles; experiment: Recovery of nerve-stimulated contractile force in isolated rat soleus nerve-muscle preparation exposed to tubocurarine; details: 40 min, read-out: Point increase (%) of initial force that was restored
Protocol: Recovery of force is quantified as the percentage of the force prior to tubocurarine that is recovered by the compound.
The current disclosure relates to compounds that inhibit CIC-1 ion channels and increase muscle excitability and thereby improve muscle function in clinical conditions where muscle activation is failing. Such conditions result in loss of contractile function of skeletal muscle, weakness and excessive fatigue. In this series of experiments the compounds were tested for their ability to restore contractile function of isolated rat muscle when the neuromuscular transmission had been compromised akin to neuromuscular disorders.
Experimentally, soleus muscles from 4-5 wk old rats were isolated with the motor nerve remaining attached. The nerve-muscle preparations were mounted in experimental setups that enabled electrical stimulation of the motor nerve. Stimulation of the motor nerve led to activation of the muscle fibres and ensuing force production that was recorded.
After mounting the nerve-muscle preparation in the experimental setup, the contractile function of the muscle was initially assessed under the control conditions (FIG. 2A). […] The experimental condition mimics the failing neuromuscular transmission in a range of neuromuscular disorders. After addition of tubocurarine the contractile force declined over the next 90 mins to 10-50% of the control force. 50 μM of the test compound was then added and the contractile force recovered despite the continued presence of tubocurarine. To quantify the ability of the compound to restore force the percentage of the initial force that was restored was determined after 40 mins of compound exposure (FIG. 2B) and the point increase is reported in Table 3.

[3] = target: T1, CIC-1 ion channel (Rattus norvegicus, UniProt P35524); experiment: Electrophysiological measurement (Gm, three micro-electrode technique) of compound inhibition of CIC-1 in rat soleus muscle fibres; type: cell-based; details: whole rat soleus muscle, Gm at four increasing concentrations, approx. 30° C., mean ± spread
T1 construct: from tissue; host or cells: intact soleus muscle of 12-14 week old Wistar rats
T1 sequence (P35524 1-994): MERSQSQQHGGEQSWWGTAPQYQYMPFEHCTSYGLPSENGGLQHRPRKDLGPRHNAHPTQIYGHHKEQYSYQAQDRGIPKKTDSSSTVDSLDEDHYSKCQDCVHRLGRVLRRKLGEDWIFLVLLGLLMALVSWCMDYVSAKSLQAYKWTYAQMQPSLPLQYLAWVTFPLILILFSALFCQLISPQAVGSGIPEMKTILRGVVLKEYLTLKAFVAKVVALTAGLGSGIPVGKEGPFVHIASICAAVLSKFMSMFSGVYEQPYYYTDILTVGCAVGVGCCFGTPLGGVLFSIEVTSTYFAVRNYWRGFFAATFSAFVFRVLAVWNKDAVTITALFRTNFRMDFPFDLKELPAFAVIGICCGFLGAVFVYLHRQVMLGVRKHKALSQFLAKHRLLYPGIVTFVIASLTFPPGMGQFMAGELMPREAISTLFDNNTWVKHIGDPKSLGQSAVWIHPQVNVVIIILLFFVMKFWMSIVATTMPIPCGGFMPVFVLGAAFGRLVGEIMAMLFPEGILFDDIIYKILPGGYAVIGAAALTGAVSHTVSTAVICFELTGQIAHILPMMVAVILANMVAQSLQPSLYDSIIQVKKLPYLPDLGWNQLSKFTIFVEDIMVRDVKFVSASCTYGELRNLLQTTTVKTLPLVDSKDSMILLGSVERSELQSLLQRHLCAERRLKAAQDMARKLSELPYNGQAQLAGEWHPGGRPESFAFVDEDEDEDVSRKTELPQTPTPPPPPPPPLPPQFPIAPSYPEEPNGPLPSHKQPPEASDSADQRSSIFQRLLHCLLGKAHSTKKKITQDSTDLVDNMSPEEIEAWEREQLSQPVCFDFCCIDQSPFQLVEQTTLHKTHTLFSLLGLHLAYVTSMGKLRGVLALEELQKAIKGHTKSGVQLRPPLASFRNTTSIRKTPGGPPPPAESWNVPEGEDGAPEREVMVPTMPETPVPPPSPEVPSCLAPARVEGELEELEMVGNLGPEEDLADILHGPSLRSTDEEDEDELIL

[4] = system: isolated rat soleus muscles; experiment: Recovery of nerve-stimulated contractile force in isolated rat soleus nerve-muscle preparation exposed to tubocurarine; details: FIG. 2: 50 μM compound added after 90 min incubation in tubocurarine, 3 muscles
[5] = 50 μM test compound, after 40 mins exposure, 115 nM tubocurarine for 90 mins, rat soleus

Compound: CCC(F)(F)c1cc(Cl)c(F)cc1O[C@@H](C)C(=O)O [Compound A-32, (2S)-2-[4-chloro-2-(1,1-difluoropropyl)-5-fluorophenoxy]propanoic acid]
- change in vivo at 11.2 mg/kg [1]: 75%
- activation at 50 µM ([2]; Rattus norvegicus): 41%
- EC50 [3]: 2.3 ± 0.6 µM

Compound: CCC(F)(F)c1cc(Br)c(F)cc1OCC(=O)O [Compound A-31, 2-[4-bromo-2-(1,1-difluoropropyl)-5-fluorophenoxy]acetic acid]
- change in vivo at 11.4 mg/kg ([1]; 11.4 mg/kg i.v., 80 Hz stimulation, Cisatracurium block): 14%
- activation at 50 µM [2, 5]: 43%
- EC50 [3]: 5.5 ± 0.2 µM

Compound: CCC(F)(F)c1cc(Cl)ccc1O[C@@H](C)C(=O)O [Compound A-5, (2S)-2-[4-chloro-2-(1,1-difluoropropyl)phenoxy]propanoic acid]
- change in vivo at 10.5 mg/kg [1]: 47%
- activation at 50 µM ([2]; Rattus norvegicus): 53%
- EC50 [3]: 4 ± 2.1 µM

Compound: C[C@H](Oc1cc(F)c(Br)cc1C(C)(F)F)C(=O)O [Compound A-29, (2S)-2-[4-bromo-2-(1,1-difluoroethyl)-5-fluorophenoxy]propanoic acid]
- change in vivo at 22.9 mg/kg [1]: 76%
- activation at 50 µM ([2]; Rattus norvegicus): 46%
- EC50 [3]: 5.5 ± 1.7 µM

Compound: CCC(F)(F)c1cc(Br)ccc1O[C@@H](C)C(=O)O [Compound A-3, (2S)-2-[4-bromo-2-(1,1-difluoropropyl)phenoxy]propanoic acid]
- change in vivo at 17.5 mg/kg ([1]; 17.5 mg/kg i.v., 80 Hz stimulation, Cisatracurium block): 64%
- activation at 50 µM [2, 5]: 54%
- average force (AUC) relative to initial force [4]: recovered
- EC50 [3]: 3.5 ± 0.4 µM

Compound: CC(C)C(F)(F)c1cc(Br)ccc1O[C@@H](C)C(=O)O [Compound A-7, (2S)-2-[4-bromo-2-(1,1-difluoro-2-methylpropyl)phenoxy]propanoic acid]
- change in vivo at 25.1 mg/kg ([1]; 25.1 mg/kg i.v., 80 Hz stimulation, Cisatracurium block): 64%
- activation at 50 µM [2, 5]: 42%
- EC50 [3]: 3.5 ± 0.7 µM

Compound: CCC(F)(F)c1cc(Cl)ccc1O[C@@H](CF)C(=O)O [Compound A-22, (2R)-2-[4-chloro-2-(1,1-difluoropropyl)phenoxy]-3-fluoropropanoic acid]
- change in vivo at 10.4 mg/kg [1]: 57%
- activation at 50 µM ([2]; Rattus norvegicus): 65%
- EC50 [3]: 3.3 ± 1.2 µM
